Experiments:
[1] = tested on: TAR RNA; experiment: L-arginine-Amberlite affinity column elution of TAR RNA; format: binding, HIV-1; conditions: concentration that elutes 50% of TAR RNA from L-arginine-Amberlite affinity column
Method: (§1) The model Tat peptide (R52: […]) was prepared by the Weizmann Institute Chemical Services and was purified by reverse phase HPLC (C-18) (Lapidot et al., 1995). […] The RNA was transcriptionally labeled with α-^32P UTP, purified on a 12% polyacrylamide/7M urea gel (19:1 acrylamide:bis-acrylamide) and was eluted from the gel by 0.5M ammonium acetate, 10 mM magnesium acetate, 1 mM EDTA and 0.1% SDS. The sample was subjected to phenol extraction and the RNA was precipitated from 70% ethanol. Purified RNA was dissolved in diethyl pyrocarbonate-treated water (DEPC water), its concentration was determined by UV absorption at 260 nm and the specific radioactivity was determined by scintillation counting on a LS 1701 “Bruker” counter.
The L-arginine-Amberlite resin was prepared as follows: Carboxyl groups of Amberlite IRC-50 resin were covalently modified with ethanolamine using 1-(3-dimethylaminopropyl) 3-ethylcarbodiimide, a water-soluble coupler. The hydroxy ethyleneamide resin obtained was washed and dried, and L-arginine (12-16 μmols per ml of resin) was coupled to the hydroxy groups of the resin via an isourea moiety using a standard cyanogen bromide protocol. The final concentration of arginine residues was 12-16 μmol per ml of resin. The swollen L-arginino-Amberlite resin (200 μl) was packed into a plastic mini-column and equilibrated with buffer containing 40 mM Tris HCl, pH 7.5, 250 mM NaCl, 0.5 mM EDTA and 5 mM MgCl2 (buffer A). Approximately 1 ng of ^32P-UTP labeled TAR RNA in buffer A was loaded on the column. The column was eluted 3 to 5 times with 400 μl portions of buffer A, until no radioactivity was detected in the eluent. […] Each of the test compounds was dissolved in buffer A and passed through the column in 300 μl portions. Radioactivity of the eluates was determined by scintillation counting on a LS 1701 “Bruker” counter. CE50 values, the concentrations of inhibitors eluting 50% of the radioactive material from the column, were determined.

[2] = target: Tat-TAR interaction; experiment: Gel-shift inhibition of Tat R52 peptide binding to TAR RNA; set-up: species or system HIV-1; conditions: for Ki: CI50 normalized to the conditions of Tao and Frankel, 1992, read-out: apparent Ki; for IC50: TAR RNA 6 nM, 60 nM Tat R52, read-out: CI50 (the source's name)
Method: The model Tat peptide (R52: […]) was prepared by the Weizmann Institute Chemical Services and was purified by reverse phase HPLC (C-18) (Lapidot et al., 1995). A 31-nt TAR RNA fragment (5′-GGCCAGAUCUGAGCCUGGGAGCUCUCUGGCC-3′) containing the sequence 18-44 of the HIV LTR (Aboul-Ela et al., 1995) was transcribed in vitro by T7 RNA polymerase (Promega) from a synthetic single strand DNA template containing the 17 base double-stranded T7 promoter (both DNA oligonucleotides were prepared by the Weizmann Institute Chemical Services). The RNA was transcriptionally labeled with α-^32P UTP, purified on a 12% polyacrylamide/7M urea gel (19:1 acrylamide:bis-acrylamide) and was eluted from the gel by 0.5M ammonium acetate, 10 mM magnesium acetate, 1 mM EDTA and 0.1% SDS. The sample was subjected to phenol extraction and the RNA was precipitated from 70% ethanol. Purified RNA was dissolved in diethyl pyrocarbonate-treated water (DEPC water), its concentration was determined by UV absorption at 260 nm and the specific radioactivity was determined by scintillation counting on a LS 1701 “Bruker” counter.
To study the affinity of the test compounds to TAR, gel-shift and gel-shift inhibition experiments were performed. The binding reaction mixtures (20 μl) contained ^32P-labeled TAR (18-44) RNA oligonucleotide (3-6 nM) and Tat R52 peptide (35-75 nM) in a binding buffer (10 mM Tris-HCl pH 7.5, 70 mM NaCl, 0.2 mM EDTA and 5% glycerol). The reaction mixtures were incubated for 10 minutes on ice and resolved by electrophoresis on a 10% non-denaturing polyacrylamide gel (40:1 acrylamide:bis-acrylamide) at 200V, for 3 h at 4° C. Gels were dried and visualized by autoradiography. Quantitations were obtained by optical densitometry of films. Alternatively, results were visualized by exposing the wet gels to Fuji phosphoimager plates, which were read on a “Storm 820” (Molecular Dynamics) phosphoimager. Different concentrations of TAR RNA (6,12 and 20 nM) were titrated with various concentrations of Tat R52 in the binding reactions.
Binding inhibition by the monosaccharide derivatives was measured by adding several concentrations of each compound to reaction mixtures containing 60 nM Tat 52 and 6 nM ^32P TAR, attaining 100% binding of Tat TAR in the absence of inhibitors (Lapidot et al., 1995).

[3] = tested on: TAR RNA; experiment: Gel-shift binding to TAR RNA; set-up: species or system HIV-1
Method: as §1
To study the affinity of the test compounds to TAR, gel-shift and gel-shift inhibition experiments were performed. The binding reaction mixtures (20 μl) contained ^32P-labeled TAR (18-44) RNA oligonucleotide (3-6 nM) and Tat R52 peptide (35-75 nM) in a binding buffer (10 mM Tris-HCl pH 7.5, 70 mM NaCl, 0.2 mM EDTA and 5% glycerol). The reaction mixtures were incubated for 10 minutes on ice and resolved by electrophoresis on a 10% non-denaturing polyacrylamide gel (40:1 acrylamide:bis-acrylamide) at 200V, for 3 h at 4° C. Gels were dried and visualized by autoradiography. Quantitations were obtained by optical densitometry of films. Alternatively, results were visualized by exposing the wet gels to Fuji phosphoimager plates, which were read on a “Storm 820” (Molecular Dynamics) phosphoimager. […]
Binding of aminoglycoside-arginine conjugates (AAC) to TAR RNA was measured by adding varying concentrations of each conjugate to reaction mixtures (20 μl) which contained 12 nM ^32P-labeled TAR RNA. The reactions were analyzed as described above.

[4] = tested on: equine infectious anemia virus (EIAV); experiment: Antiviral activity in EIAV-infected ED fibroblasts; format: cell-based; conditions: 100-250 μM
Method: Both equine dermal fibroblasts (ED) and Equine Infectious Anemia Virus (EIAV), Wyoming isolate (Malmquist et al., 1973) were gifts from Profs. A. Yaniv and A. Gazit, from the Sackler Medical School of the Tel-Aviv University, Israel. ED cells were plated on plastic 6-well tissue culture plates (Nunclone) at density of […] per well in 2 ml of DMEM/10% FCS (fetal calf serum). The medium was removed after 12-20 hours and the cells were inoculated for 2 hours with 0.5 ml DMEM/10% FCS containing 5×10^6 pfu (plaque forming units) of EIAV and 10 μg/ml of polybrene (hexadimetrine bromide, Sigma) (Carpenter and Chesebro, 1989). Following the incubation, another 2.5 ml of DMEM/10% FCS was added to each well. […] Every […], 1.2 ml samples of the medium were collected and replaced with same amount of medium, containing radioactive uridine and the tested. The samples were clarified from cell debris by spinning at 12000 rpm for 5 minutes on the Eppendorf centrifuge. Viral particles from the clarified supernatants were collected by ultracentrifugation at 75000 rpm, 4° C. on the Beckman TL 100 centrifuge using TLA 100.2 rotor (Cheevers et al., 1977). The supernatants were carefully discarded and the pellet was resuspended in 200 μl of 1% SDS/5% Tritone X-100, mixed with 1 ml Ultima Gold scintillation liquid (Packard) and counted on LS 1701 Bruker scintillation counter. Typical duration of the experiment was 15 days; EIAV growth curves in the presence of various concentrations of the conjugates in the medium were obtained. Development of the cytopathic effect (cpe) in the infected ED cells was monitored by light microscopy.
Equine infectious anemia virus (EIAV) of Wyoming strain is adapted to grow in equine dermal fibroblasts (ED), without damaging them with a titer of 1 μfu per cell (Malmquist virus). […] In the absence of inhibitors, EIAV proliferated in the ED cells reaching a plato 9-12 days after infection (FIG. 8). […] Development of cpe started 10-12 days after infection, reaching a maximum on days 15-17, followed by rapid cell death and exfoliation from the plastic bottom of the well.

[5] = tested on: TAR RNA; experiment: RNase A footprinting of TAR RNA; format: binding, HIV-1
Method: In a typical experiment 10 μl of 5 mM cacodylate buffer pH 6.5, containing 25 mM KCl and 50-100 ng 5′ ^32P-labeled TAR RNA (approximately 0.5-1 μM) were incubated with 200 pM RNase A (Sigma) at room temperature for 10 minutes in the presence of Tat R52 and the conjugates of the invention at various concentrations. In the competition experiments, the mixture was supplemented with 0.5 μg yeast tRNA (Sigma). After the incubation, 10 μl of formamide/bromphenol blue loading buffer was added to the samples. The samples were heated to 80° C. for 2 min and were resolved by electrophoresis on 40 cm×0.8 mm 20% polyacrylamide denaturing gel (7M urea) for 3 hours at 55° C. The results were visualized by a phosphoimager as described above and quantitated using ImageQuant software.
TAR RNA and RNase A concentrations were established by co-titration. To produce a “single-hit” kinetics conditions, 1 μM TAR versus 200 pM RNase A were selected. Tat R52 and AAC concentrations were determined by titration. […] RNase A cleaved TAR RNA in an uneven manner (FIG. 4A., lane 2). The most susceptible regions for cleavage were the single-stranded loop, nucleotides U31-G34 as well as C24 and U25 of the bulge. Strong cleavage was also observed at G21-G41 and A20-U42 pairs (lower stem). Binding of R52 (2-4 μM) caused a weakening of the bands in the upper stem region, (G26-C39, A27-C38, as well as U40) (FIG. 4A., lanes 3, 4). At 4 μM R52, the cleavage at G34 (loop) was enhanced, as well as a certain enhancement of bands A20, G21, U23 and U25 was observed. Remarkably, the band corresponding to the R52-TAR complex still was observed on the gels even after electrophoresis under strongly denaturing conditions. In the presence of R4K (10-20 μM), the upper stem (G26-C29), the lower stem and the bulge (G21-U23, partially C24 and U25) were protected as well as C38, C39 and U40. Cleavage at C19 and A20 of the lower stem and C30, G33 and G34 of the loop was enhanced by 10 μM R4K, whereas with 20 μM R4K the protection of C30, G34 and A20-G21 was observed (FIG. 4A., lanes 5, 6). […] Cleavages at C19-A20 in the lower stem as well as at G30 and G34 in the loop were observed (FIG. 4A., lanes 7, 8). In the presence of GB4K (20 μM) no significant protection was observed.

[6] = tested on: HIV-1 NL4-3; experiment: Virus-binding assay, p24 antigen bound to MT-4 cells; format: cell-based; conditions: 1 hour at 37° C.; dose dependent
Method: MT4 cells (5×10^5) were incubated with supernatant containing 1×10^5 pg of p24 antigen of wild type HIV-1 in the presence of different concentrations of the test compound. One hour after infection, cells were washed 3 times with PBS and p24 antigen bound to the cells was determined by a commercial ELISA test (Coulter, Spain).

| Molecule | CE50 [1] [mM] | Ki [2] [µM] | IC50 [2] [µM] | further results |
| --- | --- | --- | --- | --- |
| COC1OC(CNC(=O)C(N)CCCNC(=N)N)C(O)C(O)C1O [RMMP, Methyl 6-deoxy6-(N-L-argininamido)-α-D-mannopyranoside] | 310 | ~160 | 1800 | – |
| CO[C@H]1O[C@H](CN)[C@@H](O)[C@H](O)[C@@H]1O [compound 7, Methyl 6-deoxy-6-amino-α-D-mannopyranoside] | >1500 | – | 56000 | – |
| CO[C@H]1O[C@H](CNC(=N)N)[C@@H](O)[C@H](O)[C@@H]1O [compound 10, Methyl 6-deoxy-6-guanidino-α-D-mannopyranoside] | 650 | ~1000 | 9000 | – |
| CN[C@@H]1[C@@H](O)[C@@H](O[C@@H]2[C@@H](O)[C@H](O[C@H]3O[C@H](CNC(=O)[C@@H](N)CCCNC(=N)N)CC[C@H]3NC(=O)[C@@H](N)CCCNC(=N)N)[C@@H](NC(=O)[C@@H](N)CCCNC(=N)N)C[C@H]2NC(=O)[C@@H](N)CCCNC(=N)N)OC[C@]1(C)O [R4GC1a, Tetraargininamido-gentamicin (C1a) conjugate] | – | – | – | concentration from which a complex with TAR RNA is formed ([3]; 20 nM TAR RNA): ≥ 200 nM; CD50 ([3]; 50% binding, TAR RNA 20 nM): 200 nM; Kd ([3]; CD50 normalized to the reported conditions (Calnan et al., 1991 b), read-out: apparent Kd): ~0.02 µM |
| N=C(N)NCCCC(=O)NC[C@H]1O[C@H](O[C@H]2[C@H](O)[C@@H](O[C@H]3O[C@H](CO)[C@@H](O)[C@H](NC(=O)CCCNC(=N)N)[C@H]3O)[C@H](NC(=O)CCCNC(=N)N)C[C@@H]2NC(=O)CCCNC(=N)N)[C@H](O)[C@@H](O)[C@@H]1O [GB4K, Tetra-γ-(N-guanidino)butyramido-kanamycin A conjugate] | – | – | – | binding to TAR RNA in gel-shift experiments ([3]; up to 50 μM): did not exhibit binding; effect on the viral growth [4]: did not show any effect; binding to TAR RNA in protection experiments ([5]; at 40 μM): did not exhibit binding; TAR RNA binding, overall assessment ([5]; footprinting studies): very weak TAR RNA binder |
| CO[C@@H]1O[C@H](CNC(C)=N)C(O)[C@H](O)[C@@H]1O (stereo partly drawn) [compound 11, Methyl 6-deoxy-6-(N-acetamidino)-α-D-mannopyranoside] | 730 | ~1000 | 11000 | – |
| Dextran sulfate [reference compound] | – | – | – | binding of HIV-1 NL4-3 to MT-4 cells [6]: active |
| CO[C@H]1O[C@H](CC#N)[C@@H](O)[C@H](O)[C@@H]1O [compound 4, Methyl 6-deoxy-6-cyano-α-D-mannopyranoside] | 1200 | – | 46000 | – |
| CO[C@@H]1O[C@H](C/C(N)=N/O)C(O)[C@H](O)[C@@H]1O (stereo partly drawn) [compound 9, Methyl 6-deoxy-α-D-mannoheptopyranuronic acid amidoxime] | >1500 | – | > 50000 | – |
